Values of other authors, collected in patent publication EP1954843B1, “LEACHING PROCESS IN THE PRESENCE OF HY[…] FOR THE RECOVERY OF A VALUE METAL FROM AN ORE” (Anglo Operations Limited, priority 2005, dated 2007).

Conditions: at 80°C

## [Cl-].[Cl-].[Zn+2] [zinc chloride]
  soluble to the extent of: ca. 84.4 g/100g saturated solution
